test system: total HDAC enzyme; assay: Total HDAC enzyme activity, HDAC Fluorimetric Assay (HeLa extract); assay type: biochemical, human
Protocol: Measurement of in vitro inhibition of total HDAC enzyme activity:
The in vitro inhibition of total HDAC enzyme was determined by HDAC Fluorimetric Assay/Drug Discovery Kit (BIOMOL) according to manufacture's instruction. • 1. Add Assay buffer, diluted trichostatin A or test inhibitor to appropriate wells of the microtiter plate. Following table lists examples of various assay types and the additions required for each test.
• 2. Add diluted HeLa extract or other HDAC sample to all wells except those that are to be “No Enzyme Controls” (Blank). • 3. Allow diluted Fluor de Lys™ Substrate and the samples in the microtiter plate to equilibrate to assay temperature (25° C.). • 4. Initiate HDAC reactions by adding diluted substrate (25 μl) to each well and mixing thoroughly. • 5. Allow HDAC reactions to proceed for desired length of time and then stop them by addition of Fluor de Lys™ Developer (50 μl). Incubate plate at room temperature (25° C.) for 10-15 min. • 6. Read samples in a microtiter-plate reading fluorimeter capable of excitation at a wavelength in the range 350-380 nm and detection of emitted light in the range 440-460 nm. Measurement of in vivo inhibition of HDAC subtype activity: […]

SMILES | % inhibition of total HDAC enzyme activity at 30 μM [%]
Cc1[nH]c(/C=C2\C(=O)Nc3ccc(F)cc32)c(C)c1C(=O)NCCNc1ccc(C(=O)Nc2ccccc2N)cn1 [Example 3, (Z)-N-(2-aminophenyl)-6-(2-(2-((5-fluoro-2-oxoindolin-3-ylidene)methyl)-3,5-dimethyl-1H-pyrrole-4-carboxamido)ethylamino)nicotinamide] | 9.20
Cc1[nH]c(/C=C2\C(=O)Nc3ccc(F)cc32)c(C)c1C(=O)NCCCCNc1ccc(C(=O)Nc2ccccc2N)cn1 [Example 9, (Z)-N-(2-aminophenyl)-6-(4-(2-((5-fluoro-2-oxoindolin-3-ylidene)methyl)-3,5-dimethyl-1H-pyrrole-4-carboxamido)butylamino)nicotinamide] | 6.30
Cc1[nH]c(/C=N/N=C2\C(=O)Nc3ccc(F)cc32)c(C)c1C(=O)NCCNc1ccc(C(=O)Nc2ccccc2N)cn1 [Example 4, N-(2-aminophenyl)-6-(2-(2-(((5-fluoro-2-oxoindolin-3-ylidene)hydrazono)-methyl)-3,5-dimethyl-1H-pyrrole-4-carboxamido)ethylamino)nicotinamide] | 6.90
Cc1[nH]c(/C=N/N=C2\C(=O)Nc3ccc(F)cc32)c(C)c1C(=O)NCCCNc1ccc(C(=O)Nc2ccccc2N)cn1 [Example 7, N-(2-aminophenyl)-6-(3-(2-(((5-fluoro-2-oxoindolin-3-ylidene)hydrazono)-methyl)-3,5-dimethyl-1H-pyrrole-4-carboxamido)propylamino)nicotinamide] | 7.80
Cc1[nH]c(/C=C2\C(=O)Nc3ccc(F)cc32)c(C)c1C(=O)NCCCCNc1ccc(C(=O)Nc2ccc(F)cc2N)cn1 [Example 19, (Z)-N-(2-amino-4-fluorophenyl)-6-(4-(2-((5-fluoro-2-oxoindolin-3-ylidene)-methyl)-3,5-dimethyl-1H-pyrrole-4-carboxamido)butylamino)nicotinamide] | 7.30
Cc1[nH]c(/C=N/N=C2\C(=O)Nc3ccc(F)cc32)c(C)c1C(=O)NCCCNc1ccc(C(=O)Nc2ccc(F)cc2N)cn1 [Example 17, N-(2-amino-4-fluorophenyl)-6-(3-(2-(((5-fluoro-2-oxoindolin-3-ylidene)-hydrazono)methyl)-3,5-dimethyl-1H-pyrrole-4-carboxamido)propylamino)nicotinamide] | 4.00
Cc1[nH]c(/C=N/N=C2\C(=O)Nc3ccc(F)cc32)c(C)c1C(=O)NCCCCNc1ccc(C(=O)Nc2ccc(F)cc2N)cn1 [Example 20, N-(2-amino-4-fluorophenyl)-6-(4-(2-(((5-fluoro-2-oxoindolin-3-ylidene)-hydrazono)methyl)-3,5-dimethyl-1H-pyrrole-4-carboxamido)butylamino)nicotinamide] | 3.50
Cc1[nH]c(/C=N/N=C2\C(=O)Nc3ccc(F)cc32)c(C)c1C(=O)NCCCCNc1ccc(C(=O)Nc2ccccc2N)cn1 [Example 10, N-(2-aminophenyl)-6-(4-(2-(((5-fluoro-2-oxoindolin-3-ylidene)hydrazono)-methyl)-3,5-dimethyl-1H-pyrrole-4-carboxamido)butylamino)nicotinamide] | 6.10
Cc1[nH]c(/C=C2\C(=O)Nc3ccc(F)cc32)c(C)c1C(=O)NCCCNc1ccc(C(=O)Nc2ccccc2N)cn1 [Example 6, (Z)-N-(2-aminophenyl)-6-(3-(2-((5-fluoro-2-oxoindolin-3-ylidene)methyl)-3,5-dimethyl-1H-pyrrole-4-carboxamido)propylamino)nicotinamide] | 12.50
Cc1[nH]c(/C=C2\C(=O)Nc3ccc(F)cc32)c(C)c1C(=O)NCCNc1ccc(C(=O)Nc2ccc(F)cc2N)cn1 [Example 13, (Z)-N-(2-amino-4-fluorophenyl)-6-(2-(2-((5-fluoro-2-oxoindolin-3-ylidene)-methyl)-3,5-dimethyl-1H-pyrrole-4-carboxamido)ethylamino)nicotinamide] | −2.60
Cc1[nH]c(/C=N/N=C2\C(=O)Nc3ccc(F)cc32)c(C)c1C(=O)NCCNc1ccc(C(=O)Nc2ccc(F)cc2N)cn1 [Example 14, N-(2-amino-4-fluorophenyl)-6-(2-(2-(((5-fluoro-2-oxoindolin-3-ylidene)-hydrazono)methyl)-3,5-dimethyl-1H-pyrrole-4-carboxamido)ethylamino)nicotinamide] | 1.00
Cc1[nH]c(/C=C2\C(=O)Nc3ccc(F)cc32)c(C)c1C(=O)NCCCNc1ccc(C(=O)Nc2ccc(F)cc2N)cn1 [Example 16, (Z)-N-(2-amino-4-fluorophenyl)-6-(3-(2-((5-fluoro-2-oxoindolin-3-ylidene)-methyl)-3,5-dimethyl-1H-pyrrole-4-carboxamido)propylamino)nicotinamide] | 6.70
